Consider five compounds from patent EP4445957A1, “ANTIBACTERIAL COVALENT PEPTIDE INHIBITORS” (priority 2023, dated 2024).

Assay [1] concerns the target EcwtSC (Escherichia coli, UniProt P0A988). As to the kind of experiment: Isothermal Titration Calorimetry (ITC/kinITC), wild-type sliding clamp. Type of assay: binding, E. coli. The method, then:
ITC experiments were performed using an iTC200 or a PEAQ-ITC instrument (Microcal Malvern Panalytical). […] Data were corrected for the heat of injection by subtracting the signal of the titration of peptides into protein-free buffer solution either R1 buffer ([4-(2-hydroxyethyl)piperazine-1-ethanesulfonic acid (HEPES) 10 mM pH 7.4, NaCl 0.15 M, EDTA 3 mM] or AcNH4 pH7.4, 150 mM). Each titration was performed at least twice: the exact number of the experiments performed with each peptide is indicated in Tables 1-6. Reported data are mean values (± SD) of all experiments. Analyses of the experimental data were performed, following a classical treatment with AFFINImeter software (https://www.affinimeter.com; S4S, Santiago de Compostela, Spain). In addition, kinetic information was obtained in some cases with kinITC as implemented in software AFFINImeter (D. Burnouf et al., J. Am. Chem. Soc. 2012, 134, 559-565; and P. Dumas et al., in Methods Enzymol., Elsevier, 2016, pp. 157-180).

Assay [2] addresses EcH175GSC (Escherichia coli, UniProt P0A988, H175G). As to the kind of experiment: Isothermal Titration Calorimetry (ITC/kinITC), H175G mutant sliding clamp. Type of assay: binding, E. coli. The following applies: for ΔΔH (ΔH reduction): H175G SC mutant compared to EcwtSC, 25 °C; for ΔΔH (ΔH reduction) / -TΔS / ΔG / ΔH: R1 buffer; for -TΔS / ΔG / ΔH: 25 °C (298.15K). The procedure: ITC experiments were performed using an iTC200 or a PEAQ-ITC instrument (Microcal Malvern Panalytical). Peptides (300 or 600 µM) were titrated at 25 °C by sequential injections (usually 2 µL each) into an SC solution (30 or 60 µM). Data were corrected for the heat of injection by subtracting the signal of the titration of peptides into protein-free buffer solution either R1 buffer ([4-(2-hydroxyethyl)piperazine-1-ethanesulfonic acid (HEPES) 10 mM pH 7.4, NaCl 0.15 M, EDTA 3 mM] or AcNH4 pH7.4, 150 mM). Each titration was performed at least twice: the exact number of the experiments performed with each peptide is indicated in Tables 1-6. Reported data are mean values (± SD) of all experiments. Analyses of the experimental data were performed, following a classical treatment with AFFINImeter software (https://www.affinimeter.com; S4S, Santiago de Compostela, Spain). In addition, kinetic information was obtained in some cases with kinITC as implemented in software AFFINImeter (D. Burnouf et al., J. Am. Chem. Soc. 2012, 134, 559-565; and P. Dumas et al., in Methods Enzymol., Elsevier, 2016, pp. 157-180).
For orientation: ITC needs no label: the signal is the heat of the interaction.

Assay [3] has as its target T1, EcSC (Escherichia coli, UniProt P0A988).
T1 construct: compatible with the molecular weight of ^EcSC monomer (40.6 kDa); endogenous in cells; host or cells: E. coli whole cell lysate
As to the kind of experiment: Covalent adduct formation monitored by mass spectrometry, kinetic constants kinact. The following applies: for formation of covalent adducts: reaction monitored by mass spectrometry. It is filed as biochemical, E. coli. The procedure: We consider the following two-steps reaction model to describe the binding of the peptide to SC and the covalent bond formation to the His 175 residue: • First step: the peptides bind reversibly to the SC binding site • Second: the formation of the covalent bond. [drawing 31]
Overall, no major effect of the incorporation of the warheads on the binding affinity was observed on the whole series of the TCls. […] Then, kinetic constants (kinact) of compounds 1 and 2 were determined at 22°C and 37°C (Table 7, entries 4 and 7).

[4] abbreviates: buffer AcNH4 pH 7.4, 150 mM, 295.15 K (22 °C).
Setting [5] is: buffer AcNH4 pH 7.4, 150 mM, 295.15 K (22 °C), read-out: KD.
Where [6] appears, read: buffer AcNH4 pH 7.4, 150 mM, 310.15 K (37 °C).
The mark [7] stands for this setting: buffer AcNH4 pH 7.4, 150 mM, 310.15 K (37 °C), read-out: KD.
Where [8] appears, read: buffer R1 (X 1), 295.15 K (22 °C).
Where [9] appears, read: buffer R1 (X 1), 310.15 K (37 °C).

Where two headings read alike, the source gives them in different places. Square brackets hold non-standard residues; d marks the D form. Peptide text beside a SMILES is read from it. * marks the point of attachment. Cha = N[C@@H](CC1CCCCC1)C(=O)O; Crotonyl(E) = C/C=C/C(=O)*; Dap = NC[C@H](N)C(=O)O; Acryloyl = C=CC(=O)*; BrAc = O=C(CBr)*; ClAc = O=C(CCl)*; X1 = CC#CC(=O)*

Chain of EcH175GSC (P0A988 whole entry H175G): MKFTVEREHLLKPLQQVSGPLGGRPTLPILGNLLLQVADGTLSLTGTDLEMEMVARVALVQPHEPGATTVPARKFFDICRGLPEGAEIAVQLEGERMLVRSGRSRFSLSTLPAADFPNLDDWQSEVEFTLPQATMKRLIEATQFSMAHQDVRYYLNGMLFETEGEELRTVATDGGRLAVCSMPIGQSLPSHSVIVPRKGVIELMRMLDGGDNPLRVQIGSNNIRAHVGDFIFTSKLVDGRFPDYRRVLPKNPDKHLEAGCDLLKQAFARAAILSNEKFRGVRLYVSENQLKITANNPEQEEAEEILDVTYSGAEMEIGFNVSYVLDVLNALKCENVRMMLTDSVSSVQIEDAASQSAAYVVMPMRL
Chain of EcwtSC (P0A988 whole entry): as the sequence (P0A988 whole entry H175G) above, with G175H counted along it
T1 sequence (P0A988 whole entry): as the sequence (P0A988 whole entry H175G) above, with G175H counted along it

With `C=CC(=O)NC[C@H](NC(=O)[C@H](CC1CCCCC1)NC(=O)[C@H](CCC(N)=O)NC(C)=O)C(=O)N[C@@H](CC(C)C)C(=O)N[C@@H](Cc1ccccc1)C(=O)O` [Peptide 1, Ac-Gln-Cha-Dap(acrylamide)-Leu-Phe-OH] (Ac-Q[Cha][Dap](Acryloyl)LF-OH), the “-TΔS” value in assay [1] (R1 buffer, 25 °C (298.15K)) is on record as 3.7 (± 0.02) kcal/mol; in assay [1] (setting [4]) it was 2.3 (± 0.7) kcal/mol; in assay [1] (setting [6]) it was 6.9 (± 1.1) kcal/mol; in assay [1] (setting [8]) it was 2.1 (± 0.2) kcal/mol; in assay [1] (setting [9]), 4.9 (± 1.1) kcal/mol; in assay [2], 3.3 (±0.7) kcal/mol. The ΔG in assay [1] (R1 buffer, 25 °C (298.15K)) is reported as -9.2 (± 0.07) kcal/mol; in assay [1] (setting [4]), -9.3 (± 0.3) kcal/mol; in assay [1] (setting [6]) it was -8.9 (± 0.1) kcal/mol; in assay [1] (setting [8]) it was -9.4 (± 0.2) kcal/mol; in assay [1] (setting [9]), -9.04 (± 0.26) kcal/mol; in assay [2], -8.3 (±0.1) kcal/mol. Besides, the ΔH is -12.8 (± 0.08) kcal/mol in assay [1] (R1 buffer, 25 °C (298.15K)); -11.5 (± 0.5) kcal/mol in assay [1] (setting [4]); -15.9 (± 1.2) kcal/mol in assay [1] (setting [6]); -11.4 (± 0.4) kcal/mol in assay [1] (setting [8]); -13.9 (± 0.8) kcal/mol in assay [1] (setting [9]); -11.6 (±0.6) kcal/mol in assay [2]. For the same compound, the Kd came to 153 nM in assay [1] (setting [5]) and 482 nM in assay [1] (setting [7]). Also, the “ΔΔH (ΔH reduction)” value in assay [2] worked out at 2.1 kcal/mol. In addition, the “formation of covalent adducts” value in assay [3] is reported as “form covalent adducts”.

For `CC(=O)N[C@@H](CCC(N)=O)C(=O)N[C@@H](CC1CCCCC1)C(=O)N[C@@H](CNC(=O)CCl)C(=O)N[C@@H](CC(C)C)C(=O)N[C@@H](Cc1ccccc1)C(=O)O` [Peptide 2, Ac-Gln-Cha-Dap(chloroacetamide)-Leu-Phe-OH] (Ac-Q[Cha][Dap](ClAc)LF-OH), the “-TΔS” value is given as 2.5 (± 0.4) kcal/mol in assay [1] (R1 buffer, 25 °C (298.15K)); 1.7 (± 1.5) kcal/mol in assay [1] (setting [4]); 8.1 (± 3.0) kcal/mol in assay [1] (setting [6]); -0.3 (± 0.1) kcal/mol in assay [1] (setting [8]); 2.3 (± 0.9) kcal/mol in assay [1] (setting [9]); 1.2 (±0.1) kcal/mol in assay [2]. Also, the ΔG in assay [1] (R1 buffer, 25 °C (298.15K)) is -9.2 (± 0.1) kcal/mol; in assay [1] (setting [4]) it was -9.2 (± 0.1) kcal/mol; in assay [1] (setting [6]), -8.9 (± 0.4) kcal/mol; in assay [1] (setting [8]) it was -9.31 (± 0.03) kcal/mol; in assay [1] (setting [9]) it was -9.03 (± 0.23) kcal/mol; in assay [2], -8.3 (±0.08) kcal/mol. In addition, the ΔH in assay [1] (R1 buffer, 25 °C (298.15K)) is -11.7 (± 0.4) kcal/mol; in assay [1] (setting [4]), -10.9 (± 1.5) kcal/mol; in assay [1] (setting [6]), -16.9 (± 2.7) kcal/mol; in assay [1] (setting [8]) it was -8.9 (± 0.1) kcal/mol; in assay [1] (setting [9]), -11.3 (± 0.8) kcal/mol; in assay [2], -9.6 (±0.1) kcal/mol. In addition, the Kd is 580 nM in assay [1] (setting [7]) and 146 ± 20 nM in assay [1] (read-out: KD (nM) at 22 °C (AcONH4 buffer), Table 7, 22 °C, AcONH4 buffer). In addition, in assay [2], the “ΔΔH (ΔH reduction)” value amounted to 3.2 kcal/mol. Besides, the “kinact (M^-1. s^-1) at 37 °C (AcONH4 buffer)” value in assay [3] (37 °C, AcONH4 buffer, second-order rate constant) stood at 1.04 ± 0.01 M⁻¹ s⁻¹. The “formation of covalent adducts” value in assay [3] is “form covalent adducts”.

Regarding `C/C=C/C(=O)NC[C@H](NC(=O)[C@H](CC1CCCCC1)NC(=O)[C@H](CCC(N)=O)NC(C)=O)C(=O)N[C@@H](CC(C)C)C(=O)N[C@@H](Cc1ccccc1)C(=O)O` [Peptide 3, Ac-Gln-Cha-Dap(but-2-enamide)-Leu-Phe-OH] (Ac-Q[Cha][Dap](Crotonyl(E))LF-OH), the “-TΔS” value is listed as 1.1 (± 0.1) kcal/mol in assay [1] (R1 buffer, 25 °C (298.15K)); 0.79 (± 0.52) kcal/mol in assay [1] (setting [4]); 6.31 (±0.02) kcal/mol in assay [1] (setting [6]); 1.8 (± 0.4) kcal/mol in assay [1] (setting [8]); 5.8 (± 1) kcal/mol in assay [1] (setting [9]). In addition, the ΔG in assay [1] (R1 buffer, 25 °C (298.15K)) is -9.25 (± 0.01) kcal/mol; in assay [1] (setting [4]), -9.02 (± 0.2) kcal/mol; in assay [1] (setting [6]), -8.97 (± 0.06) kcal/mol; in assay [1] (setting [8]) it was -9.7 (± 0.2) kcal/mol; in assay [1] (setting [9]), -9.1 (± 0.2) kcal/mol. Further, the ΔH in assay [1] (R1 buffer, 25 °C (298.15K)) is on record as -10.4 (± 0.1) kcal/mol; in assay [1] (setting [4]) it was -9.81 (± 0.4) kcal/mol; in assay [1] (setting [6]), -15.3 (± 0.1) kcal/mol; in assay [1] (setting [8]), -11.7 (± 0.6) kcal/mol; in assay [1] (setting [9]) it was -14.8 (± 0.8) kcal/mol. Moreover, the Kd was determined as 212 nM in assay [1] (setting [5]) and 475 ± 47 nM in assay [1] (read-out: KD (nM) at 37 °C (AcONH4 buffer), Table 7, 37 °C, AcONH4 buffer).

For `CC(=O)N[C@@H](CCC(N)=O)C(=O)N[C@@H](CC1CCCCC1)C(=O)N[C@@H](CNC(=O)CBr)C(=O)N[C@@H](CC(C)C)C(=O)N[C@@H](Cc1ccccc1)C(=O)O` [Peptide 4, Ac-Gln-Cha-Dap(bromoacetamide)-Leu-Phe-OH] (Ac-Q[Cha][Dap](BrAc)LF-OH), the Kd in assay [1] (KD (nM) at 22 °C (AcONH4 buffer), Table 7, 22 °C, AcONH4 buffer) was 111 ± 17 nM; in assay [1] (KD (nM) at 25°C (Hepes buffer), Table 7, 25°C, Hepes buffer), 139 ± 54 nM; in assay [1] (KD (nM) at 37 °C (AcONH4 buffer), Table 7, 37 °C, AcONH4 buffer), 281 ± 62 nM; in assay [1] (R1 buffer, 25 °C (298.15K), read-out: KD), 141 nM; in assay [1] (setting [5]), 111 nM; in assay [1] (setting [7]) it was 281 nM. In addition, the Kd in assay [1] (buffer R1 (X 1), 295.15 K (22 °C), read-out: KD) stood at 96.4 nM; in assay [1] (buffer R1 (X 1), 310.15 K (37 °C), read-out: KD), 273 nM; in assay [2] it was 730 nM.

In the case of `CC#CC(=O)NC[C@H](NC(=O)[C@H](CC1CCCCC1)NC(=O)[C@H](CCC(N)=O)NC(C)=O)C(=O)N[C@@H](CC(C)C)C(=O)N[C@@H](Cc1ccccc1)C(=O)O` [Peptide 5, Ac-Gln-Cha-Dap(but-2-ynamide)-Leu-Phe-OH] (Ac-Q[Cha][Dap](X1)LF-OH), in assay [1] (R1 buffer, 25 °C (298.15K)), the “-TΔS” value is 2.1 (± 0.1) kcal/mol, the ΔG is given as -9.8 (± 0.1) kcal/mol and the ΔH is given as -11.8 (± 0.06) kcal/mol. Further, in assay [1] (setting [8]), the “-TΔS” value is given as 2.7 (± 1.2) kcal/mol, the ΔG is on record as -10.5 (± 0.2) kcal/mol and the ΔH is reported as -13.1 (± 1.2) kcal/mol. Moreover, in assay [1] (setting [9]), the “-TΔS” value is given as 6.9 (± 0.4) kcal/mol, the ΔG was -10.12 (± 0.03) kcal/mol and the ΔH is -17.0 (± 0.4) kcal/mol. In assay [2], the “ΔΔH (ΔH reduction)” value was found to be 2.0 kcal/mol, the “-TΔS” value is 0.04 (±0.3) kcal/mol, the ΔG was -9.7 (±0.1) kcal/mol and the ΔH is given as -9.7 (±0.2) kcal/mol.

As usually defined, the Kd is a measure of binding affinity in units of concentration.
